The numbers were not newly measured in article PMC3433420 (PLoS ONE, 2012), which cites them from elsewhere.

Where two headings read alike, the source gives them in different places.

The data set has as its target SH2 and PTB domains. To be noted: cited from earlier work. From the text:
Supplement pone.0044471.s022.xlsx, sheet "Most recent PM interactions" | column: Kd || Supplement pone.0044471.s022.xlsx, sheet "All original PM interactions" | column: Kd

Where [1] appears, read: Protein ABL2, most recent PM interactions, ref Jones et al. 2006 / Kaushansky et al. Chem and Biol 2008.
[2] abbreviates: Protein SHC1-PTB, most recent PM interactions, ref Jones et al. 2006 / Kaushansky et al. Chem and Biol 2008.
[3] abbreviates: protein ABL2, ref Jones et al. 2006 / Kaushansky et al. Mol Biosys 2008 / Kaushansky et al. Chem and Biol 2008.
The mark [4] stands for this setting: protein SHB, ref Jones et al. 2006 / Kaushansky et al. Mol Biosys 2008 / Kaushansky et al. Chem and Biol 2008.
Where [5] appears, read: protein YES1, ref Jones et al. 2006 / Kaushansky et al. Mol Biosys 2008 / Kaushansky et al. Chem and Biol 2008.
Where [6] appears, read: Protein ABL2, most recent PM interactions, ref Jones et al. 2006 / Kaushansky et al. Mol Biosys 2008 / Kaushansky et al. Chem and Biol 2008.
Where [7] appears, read: Protein RASA1-N, most recent PM interactions, ref Jones et al. 2006 / Kaushansky et al. Mol Biosys 2008 / Kaushansky et al. Chem and Biol 2008.
The mark [8] stands for this setting: Protein SHC1-PTB, most recent PM interactions, ref Jones et al. 2006 / Kaushansky et al. Mol Biosys 2008 / Kaushansky et al. Chem and Biol 2008.
The mark [9] stands for this setting: Protein PIK3R3-NC, most recent PM interactions, ref Jones et al. 2006 / Kaushansky et al. Mol Biosys 2008 / Kaushansky et al. Chem and Biol 2008.
[10] abbreviates: Protein RASA1-N, original PM interactions, ref Jones et al. 2006 / Kaushansky et al. Chem and Biol 2008.

For orientation: Kd means the free concentration of one partner at which half of the binding sites on the other are occupied at equilibrium, for simple one-to-one binding. Take FGGAVENPEpYLTPQGGA [ErbB2 1196]: the Kd was 480 nM under setting [1]; 1440 nM (Protein CRKL, most recent PM interactions, ref Jones et al. 2006 / Kaushansky et al. Chem and Biol 2008); 1680 nM (Protein FGR, most recent PM interactions, ref Jones et al. 2006 / Kaushansky et al. Chem and Biol 2008); 1330 nM (Protein GRB2, most recent PM interactions, ref Jones et al. 2006 / Kaushansky et al. Chem and Biol 2008); 770 nM (Protein ITK, most recent PM interactions, ref Jones et al. 2006 / Kaushansky et al. Chem and Biol 2008); 1100 nM (Protein NCK2, most recent PM interactions, ref Jones et al. 2006 / Kaushansky et al. Chem and Biol 2008). For the same substance, the Kd is 230 nM (Protein PIK3R1-NC, most recent PM interactions, ref Jones et al. 2006 / Kaushansky et al. Chem and Biol 2008); 1280 nM (Protein PIK3R2-N, most recent PM interactions, ref Jones et al. 2006 / Kaushansky et al. Chem and Biol 2008); 1390 nM (Protein PIK3R3-N, most recent PM interactions, ref Jones et al. 2006 / Kaushansky et al. Chem and Biol 2008); 1340 nM (Protein PIK3R3-NC, most recent PM interactions, ref Jones et al. 2006 / Kaushansky et al. Chem and Biol 2008); 1350 nM (Protein PLCG2-NC, most recent PM interactions, ref Jones et al. 2006 / Kaushansky et al. Chem and Biol 2008); 670 nM (Protein RASA1-N, most recent PM interactions, ref Jones et al. 2006 / Kaushansky et al. Chem and Biol 2008). Moreover, the Kd under setting [2] is 350 nM; the Kd (Protein SYK-C, most recent PM interactions, ref Jones et al. 2006 / Kaushansky et al. Chem and Biol 2008) was 1240 nM; the Kd (Protein SYK-NC, most recent PM interactions, ref Jones et al. 2006 / Kaushansky et al. Chem and Biol 2008) is 1330 nM; the Kd (Protein VAV1, most recent PM interactions, ref Jones et al. 2006 / Kaushansky et al. Chem and Biol 2008) is 1250 nM; the Kd (Protein VAV2, most recent PM interactions, ref Jones et al. 2006 / Kaushansky et al. Chem and Biol 2008) is 230 nM; the Kd (Protein VAV3, most recent PM interactions, ref Jones et al. 2006 / Kaushansky et al. Chem and Biol 2008) was 600 nM. For the same substance, the Kd (Protein YES1, most recent PM interactions, ref Jones et al. 2006 / Kaushansky et al. Chem and Biol 2008) is 1190 nM.

“FLQRpYSSDPTGAd [ErbB1 pY1069, N-terminally rhodamine-labeled 13-mer phosphopeptide]”: the Kd under setting [3] is 2000 nM, the Kd under setting [4] was 860 nM and the Kd under setting [5] is 300 nM.

“GSKPpYDGIPASEd [ErbB1 pY915, N-terminally rhodamine-labeled 13-mer phosphopeptide]”: the Kd is, setting by setting: under setting [3], 140 nM; (protein BLK, ref Jones et al. 2006 / Kaushansky et al. Mol Biosys 2008 / Kaushansky et al. Chem and Biol 2008) 1180 nM; (protein RASA1-N, ref Jones et al. 2006 / Kaushansky et al. Mol Biosys 2008 / Kaushansky et al. Chem and Biol 2008) 1470 nM; under setting [4], 1060 nM; (protein SYK-NC, ref Jones et al. 2006 / Kaushansky et al. Mol Biosys 2008 / Kaushansky et al. Chem and Biol 2008) 1550 nM; under setting [5], 330 nM.

With GTPTAENPEpYLGLDVPV [ErbB2 1248], the Kd was 210 nM under setting [1] and 280 nM under setting [2].

With HQISLDNPDpYQQDFFPKd [ErbB1 1172], the Kd under setting [6] was 490 nM; the Kd under setting [7] was 1140 nM; the Kd under setting [8] is 40 nM; the Kd (Protein SHC2-PTB, most recent PM interactions, ref Jones et al. 2006 / Kaushansky et al. Mol Biosys 2008 / Kaushansky et al. Chem and Biol 2008) is 1310 nM; the Kd (Protein SYK-NC, most recent PM interactions, ref Jones et al. 2006 / Kaushansky et al. Mol Biosys 2008 / Kaushansky et al. Chem and Biol 2008) is 1280 nM.

For the substance HSTAVGNPEpYLNTVQPTd [ErbB1 1138], the Kd runs as follows: under setting [6], 120 nM; (Protein GRB2, most recent PM interactions, ref Jones et al. 2006 / Kaushansky et al. Mol Biosys 2008 / Kaushansky et al. Chem and Biol 2008) 420 nM; (Protein ITK, most recent PM interactions, ref Jones et al. 2006 / Kaushansky et al. Mol Biosys 2008 / Kaushansky et al. Chem and Biol 2008) 1760 nM; (Protein NCK2, most recent PM interactions, ref Jones et al. 2006 / Kaushansky et al. Mol Biosys 2008 / Kaushansky et al. Chem and Biol 2008) 330 nM; (Protein PIK3R1-NC, most recent PM interactions, ref Jones et al. 2006 / Kaushansky et al. Mol Biosys 2008 / Kaushansky et al. Chem and Biol 2008) 1570 nM; (Protein PIK3R2-N, most recent PM interactions, ref Jones et al. 2006 / Kaushansky et al. Mol Biosys 2008 / Kaushansky et al. Chem and Biol 2008) 760 nM. The Kd (Protein PIK3R2-NC, most recent PM interactions, ref Jones et al. 2006 / Kaushansky et al. Mol Biosys 2008 / Kaushansky et al. Chem and Biol 2008) was 860 nM; the Kd (Protein PIK3R3-N, most recent PM interactions, ref Jones et al. 2006 / Kaushansky et al. Mol Biosys 2008 / Kaushansky et al. Chem and Biol 2008) is 840 nM; the Kd under setting [9] is 1690 nM; the Kd under setting [7] was 390 nM; the Kd under setting [8] is 170 nM; the Kd (Protein VAV2, most recent PM interactions, ref Jones et al. 2006 / Kaushansky et al. Mol Biosys 2008 / Kaushansky et al. Chem and Biol 2008) is 370 nM. For the same substance, the Kd (Protein ZAP70-NC, most recent PM interactions, ref Jones et al. 2006 / Kaushansky et al. Mol Biosys 2008 / Kaushansky et al. Chem and Biol 2008) is 1140 nM.

Take IKEDSFLQRpYSSDPTGAd [ErbB1 1069]: the Kd (Protein SHB, most recent PM interactions, ref Jones et al. 2006 / Kaushansky et al. Mol Biosys 2008 / Kaushansky et al. Chem and Biol 2008) was 860 nM; the Kd (Protein YES1, most recent PM interactions, ref Jones et al. 2006 / Kaushansky et al. Mol Biosys 2008 / Kaushansky et al. Chem and Biol 2008) was 300 nM.

Turning to KGSTAENAEpYLRVAPQSd [ErbB1 1197], the Kd was 210 nM under setting [6], 1110 nM under setting [9] and 320 nM under setting [8].

KLLGAEEKEpYHAEGGKVd [ErbB1 869]: the Kd runs as follows: under setting [6], 1080 nM; (Protein BLK, most recent PM interactions, ref Jones et al. 2006 / Kaushansky et al. Mol Biosys 2008 / Kaushansky et al. Chem and Biol 2008) 1710 nM.

Regarding “KQLLpYSEAKTPId [ErbB3 pY868, N-terminally rhodamine-labeled 13-mer phosphopeptide]”, the Kd runs as follows: (Protein ABL2, original PM interactions, ref Jones et al. 2006 / Kaushansky et al. Chem and Biol 2008) 70 nM; (Protein BCAR3, original PM interactions, ref Jones et al. 2006 / Kaushansky et al. Chem and Biol 2008) 1780 nM; (Protein CRKL, original PM interactions, ref Jones et al. 2006 / Kaushansky et al. Chem and Biol 2008) 1760 nM; (Protein NCK2, original PM interactions, ref Jones et al. 2006 / Kaushansky et al. Chem and Biol 2008) 2000 nM; (Protein PIK3R3-NC, original PM interactions, ref Jones et al. 2006 / Kaushansky et al. Chem and Biol 2008) 2000 nM; under setting [10], 950 nM. The Kd is 2000 nM (Protein SHC1-PTB, original PM interactions, ref Jones et al. 2006 / Kaushansky et al. Chem and Biol 2008); 920 nM (Protein SYK-NC, original PM interactions, ref Jones et al. 2006 / Kaushansky et al. Chem and Biol 2008).

For the substance LGSGAFGTVpYKGLWIPEd [ErbB1 727], the Kd runs as follows: (Protein SRC, most recent PM interactions, ref Kaushansky et al. Mol Biosys 2008) 580 nM; (Protein YES1, most recent PM interactions, ref Kaushansky et al. Mol Biosys 2008) 540 nM.

As for “LGYEpYMDVGSDLd [ErbB3 pY1224, N-terminally rhodamine-labeled 13-mer phosphopeptide]”, the Kd (Protein PLCG2-NC, original PM interactions, ref Jones et al. 2006 / Kaushansky et al. Chem and Biol 2008) was 2000 nM; the Kd under setting [10] was 2000 nM; the Kd (Protein RASA1-NC, original PM interactions, ref Jones et al. 2006 / Kaushansky et al. Chem and Biol 2008) was 2000 nM; the Kd (Protein SLA, original PM interactions, ref Jones et al. 2006 / Kaushansky et al. Chem and Biol 2008) is 2000 nM; the Kd (protein ABL2, ref Jones et al. 2006 / Kaushansky et al. Chem and Biol 2008) was 1130 nM; the Kd (protein PIK3R3-NC, ref Jones et al. 2006 / Kaushansky et al. Chem and Biol 2008) is 1510 nM.

As for “LHRIpYTHQSDVWd [ErbB1 pY891, N-terminally rhodamine-labeled 13-mer phosphopeptide]”, the Kd (protein HSH2D, ref Kaushansky et al. Mol Biosys 2008) was 1130 nM and the Kd (protein TNS4, ref Kaushansky et al. Mol Biosys 2008) is 300 nM.
